Reference: article PMC12037410, “Pharmacological targeting of BMAL1 modulates circadian and immune pathways” (Nature Chemical Biology, 2025)
Residues, ends and D or L forms follow the SMILES beside them.

molecular target: BMAL1 (Homo sapiens, UniProt O00327); set-up: PASB domain (residues 338–449); Protein thermal shift (PTS) fragment screen on recombinant human BMAL1(PASB), shift of melting temperature; settings: binder
Sequence (O00327 338-449): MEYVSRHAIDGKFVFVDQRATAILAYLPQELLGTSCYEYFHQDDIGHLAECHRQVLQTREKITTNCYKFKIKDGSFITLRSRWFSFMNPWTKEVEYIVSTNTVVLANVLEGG

Row | SMILES | Bmal1(PASB) dTmB
1 | NCCc1ccc(S(N)(=O)=O)cc1 [Prestw-Frag-1076, Compound 338] | -0.53

same assay, conditions: dTmB; binder

Row | SMILES | Bmal1(PASB) dTmB [°C]
2 | CN1[C@@H]2CC[C@H]1CC(O)C2 (some centres unmarked) [Prestw-Frag-0608, Compound 128] | -0.41
3 | CC(C)(C)NCC(O)COc1ccccc1C1CCCC1 (centres unmarked) [Prestw-Frag-0674, Compound 468] | -1.95
4 | O=c1ccc2ccccc2o1 [Prestw-Frag-1000, Compound 307] | -0.26
5 | Nc1cc2ccccc2oc1=O [Prestw-Frag-1001, Compound 197] | 0.68
6 | Cc1cc(-c2ccccc2)nnc1N [Prestw-Frag-1003, Compound 243] | -0.88
7 | NC(=O)NS(=O)(=O)c1ccccc1 [Prestw-Frag-1006, Compound 100] | 0.09
8 | CC(=O)Nc1nncs1 [Prestw-Frag-1008, Compound 401] | -0.09
9 | Nc1nncs1 [Prestw-Frag-1009, Compound 188] | -0.33
10 | COC(=O)C(c1ccccc1)c1ccccc1 [Prestw-Frag-1013, Compound 353] | -1.32
11 | c1ccc2c3c([nH]c2c1)CNCC3 [Prestw-Frag-1014, Compound 154] | -0.81
12 | Cc1cc(C(C)(C)CC(C)(C)C)ccc1O [Prestw-Frag-1016, Compound 351] | 0.69
13 | C[N+](C)(CCO)Cc1ccccc1 [Prestw-Frag-1017, Compound 159] | -0.27
14 | NC(=O)Cc1cccs1 [Prestw-Frag-1019, Compound 237] | -0.24
15 | NCCCCc1ccccc1 [Prestw-Frag-1031, Compound 371] | -0.34
16 | COc1ccc(Cc2ccc(OC)cc2)cc1 [Prestw-Frag-1033, Compound 354] | -0.11
17 | NCc1c(N)ccc(Cl)c1Cl [Prestw-Frag-1039, Compound 337] | 0.01
18 | O=C(O)c1ccccc1O [Prestw-Frag-1045, Compound 55] | -0.68
19 | CCC(=O)NC1=NC=NC2=NC=NC21 (centres unmarked) [Prestw-Frag-1047, Compound 47] | -0.65
20 | Nc1nc2ccccc2n1Cc1ccc(F)cc1 [Prestw-Frag-1050, Compound 460] | -1.64
21 | COc1ccc(CCN2CCC(N)CC2)cc1 [Prestw-Frag-1051, Compound 427] | -0.58
22 | CC(C)(Oc1ccccc1)C(=O)O [Prestw-Frag-1053, Compound 221] | 0.07

Row | SMILES | Bmal1(PASB) dTmB [°C]
23 | Nc1ccc[nH]c1=O [Prestw-Frag-1060, Compound 123] | -2.04
24 | COc1cc2c(cc1O)CCN[C@H]2C [Prestw-Frag-1063, Compound 388] | -0.57
25 | COc1ccc(CCN)cc1O [Prestw-Frag-1064, Compound 320] | -0.32
26 | O=[N+]([O-])c1ccc(CO)cc1 [Prestw-Frag-1071, Compound 105] | -0.41
27 | CCC1=C(C)CN(C(=O)NCCc2ccccc2)C1=O [Prestw-Frag-1075, Compound 420] | -0.68
28 | CC(=O)c1cc(Cl)ccc1O [Prestw-Frag-1083, Compound 280] | -0.22
29 | O=c1[nH]c2ccccc2o1 [Prestw-Frag-1087, Compound 245] | -0.27
30 | CC(=O)c1ccc(N2CCNCC2)c(F)c1 [Prestw-Frag-1094, Compound 141] | -0.42
31 | Cc1ncsc1CCO [Prestw-Frag-1098, Compound 189] | -0.60
32 | NC(=O)[C@H](N)c1ccccc1 [Prestw-Frag-1099, Compound 271] | -0.22
33 | OC(c1ccccc1)c1ccc(Cl)cc1 (centres unmarked) [Prestw-Frag-1106, Compound 474] | -2.07
34 | c1ccc(N2CCNCC2)nc1 [Prestw-Frag-1110, Compound 364] | -0.48
35 | COC(=O)c1scc(C)c1N [Prestw-Frag-1111, Compound 362] | -0.95
36 | CCN(Cc1ccccc1)c1ccccc1 [Prestw-Frag-1121, Compound 375] | -1.19
37 | OC(c1ccccc1)c1ccccc1 [Prestw-Frag-1122, Compound 454] | -1.61
38 | NCC(CC(=O)O)c1ccccc1 (centres unmarked) [Prestw-Frag-1125, Compound 234] | -0.06
39 | O=C(O)CCc1ccc(Cl)cc1 [Prestw-Frag-1126, Compound 340] | -0.19
40 | Cc1oncc1C(N)=O [Prestw-Frag-1128, Compound 133] | -0.10
41 | Cc1c(O)c2ccccc2oc1=O [Prestw-Frag-1130, Compound 324] | 0.05
42 | O=c1cc(O)c2ccccc2o1 [Prestw-Frag-1131, Compound 301] | 0.28
43 | COc1ccc2ccncc2c1 [Prestw-Frag-1133, Compound 321] | -1.08

Row | SMILES | Bmal1(PASB) dTmB [°C]
44 | Cn1c(=O)[nH]c2nc[nH]c2c1=O [Prestw-Frag-1138, Compound 38] | -0.59
45 | CNC(C)(C)Cc1ccccc1 [Prestw-Frag-1141, Compound 101] | -0.69
46 | COc1cc(N)ncn1 [Prestw-Frag-1154, Compound 185] | -0.03
47 | Oc1cccc2c1CCCC2 [Prestw-Frag-1156, Compound 412] | -1.05
48 | Cc1nnc(N)s1 [Prestw-Frag-1161, Compound 49] | -1.77
49 | C(=C\c1ccccc1)/CN1CCNCC1 [Prestw-Frag-1163, Compound 295] | -0.92
50 | c1ccc2[nH]c(CN3CCCC3)nc2c1 [Prestw-Frag-1164, Compound 180] | -0.18
51 | COc1ccc(N)nn1 [Prestw-Frag-1167, Compound 140] | -0.58
52 | OC(Cn1ccnc1)c1ccc(Cl)cc1Cl (centres unmarked) [Prestw-Frag-1182, Compound 411] | -0.85
53 | COc1cc2ccncc2cc1OC [Prestw-Frag-1183, Compound 290] | -1.26
54 | Nc1ccc(Cl)nn1 [Prestw-Frag-1184, Compound 263] | -0.26
55 | CN1CCC[C@H]1c1cccnc1 [Prestw-Frag-1187, Compound 13] | -0.52
56 | Cc1c(N)cccc1C(F)(F)F [Prestw-Frag-1189, Compound 334] | -0.15
57 | O=C(O)c1cccnc1Nc1ccccc1 [Prestw-Frag-1191, Compound 63] | 0.02
58 | c1ccc(C(CCN2CCCCC2)c2ccccc2)cc1 [Prestw-Frag-1193, Compound 402] | -2.05
59 | CC(Oc1ccccc1)C(N)=O (centres unmarked) [Prestw-Frag-1200, Compound 240] | -0.43
60 | CN1CCN(c2nccc(N)n2)CC1 [Prestw-Frag-1204, Compound 238] | -0.40
61 | CS(=O)(=O)c1ccc(N)cc1 [Prestw-Frag-1214, Compound 111] | -0.40
62 | COc1cccc2c1CCCC2=O [Prestw-Frag-1236, Compound 356] | -1.28
63 | Oc1ccc(-c2ccc(F)cc2F)cc1 [Prestw-Frag-1237, Compound 467] | -0.75
64 | O=C(O)c1cccc(-c2ccc(F)cc2F)c1 [Prestw-Frag-1238, Compound 368] | -0.92

Row | SMILES | Bmal1(PASB) dTmB [°C]
65 | O=C(O)c1cc(-c2ccc(F)cc2)ccc1O [Prestw-Frag-1239, Compound 277] | -1.13
66 | O=C(O)c1cc(-c2ccccc2)ccc1O [Prestw-Frag-1240, Compound 74] | -0.48
67 | CC(C)C1NCCc2c1[nH]c1ccccc21 (centres unmarked) [Prestw-Frag-1264, Compound 134] | -1.09
68 | NC1=NCCN1 [Prestw-Frag-1268, Compound 246] | -0.47
69 | COc1cc2c(cc1OC)C(C)N(C)CC2 (centres unmarked) [Prestw-Frag-1273, Compound 218] | -0.29
70 | C[C@H](N)C(=O)N1CCC[C@H]1C(=O)O [Prestw-Frag-1275, Compound 264] (H-Ala-Pro-OH) | -0.70
71 | OCc1cc2ccccc2[nH]1 [Prestw-Frag-1297, Compound 419] | 0.70
72 | CCc1cccc2c(CCO)c[nH]c12 [Prestw-Frag-1299, Compound 129] | -0.11
73 | OCCn1ccnc1 [Prestw-Frag-1303, Compound 120] | 0.13
74 | C[C@H]1NC(=O)NC1=O [Prestw-Frag-1311, Compound 224] | -0.36
75 | COc1ccc(C(=O)O)cc1N1CCCC1 [Prestw-Frag-1313, Compound 40] | -0.37
76 | O=C(O)c1ccccc1Nc1cccc(Cl)c1 [Prestw-Frag-1319, Compound 28] | -2.88
77 | Cc1cccc(Nc2ccccc2C(=O)O)c1 [Prestw-Frag-1320, Compound 17] | -0.74
78 | Nc1cccc(C(F)(F)F)c1 [Prestw-Frag-1322, Compound 231] | 0.29
79 | Fc1ccc(C(c2ccc(F)cc2)N2CCNCC2)cc1 [Prestw-Frag-1323, Compound 452] | -2.55
80 | CN1CCN(C(c2ccccc2)c2ccccc2)CC1 [Prestw-Frag-1325, Compound 405] | -0.51
81 | COc1ccccc1OCCCO [Prestw-Frag-1335, Compound 370] | 4.16
82 | OCC(O)COc1ccccc1 (centres unmarked) [Prestw-Frag-1337, Compound 306] | 0.63
83 | COc1ccccc1OCCO [Prestw-Frag-1338, Compound 363] | 0.76
84 | CCC(C(=O)OCCN(CC)CC)c1ccccc1 (centres unmarked) [Prestw-Frag-1343, Compound 396] | -1.01
85 | OC(c1ccc(Cl)cc1)c1ccccn1 (centres unmarked) [Prestw-Frag-1346, Compound 414] | -1.29

same assay, conditions: dTmB; binder; Bmal1(PASB) dTmB

Row | SMILES | Bmal1(PASB) dTmB [°C]
86 | CC1=NN(c2ccccc2)C(=O)C1 [Prestw-Frag-1028, Compound 259] | 0.76
